Results taken from patent US20070086981A1, “Delivery peptides, their constructs with active agents and use” (priority 2003, published 2007).

Test system: human skin
Experiment: Clinical study with a cream for skincare against skin aging
Type: in vivo, humans
Settings: comparison of skin creams in the clinical study
Description: A cream base was used having the following ingredients:
The huSOD-peptide OA 05 conjugate was produced as described in example 4.
The following compositions of skin cream were prepared for use in the clinical study:
The properties were evaluated according the following criteria: “firmness of the skin”, “reduction of superficial wrinkles”, “reduction of deeper wrinkles”, “skin regeneration”, and “appearance of young skin”. The questionnaire was filled out at least 4 weeks after starting of using the skin cream.
The application of the skin cream was done in all Groups (I to V) over 6 weeks twice a day, creaming the face and the neck in the morning and in the evening without using any other skin products. No application was discontinued in any group. The observation period (counted from the first application) was minimum 4 weeks and maximum 10 weeks.
Furthermore, a total evaluation of the different applied skin creams on a score ranging from 1 (excellent) to 6 (very poor) was performed.

Substance	beneficial effect on aging parameters in the human skin
SOD: Super-Oxid- Dismutase (SOD), a free radical catcher; huSOD from Jena Biosciences	has a beneficial effect on different aging parameters in the human skin
KKKQKRKK (Cargo Peptide) [OA 05]	significantly increases the beneficial effect of SOD
